Experimental findings from patent US9446044B2, “DYRK1 inhibitors and uses thereof” (DIAXONHIT, priority 2011, dated 2016) are described below.

One experiment deals with DYRK1A (Homo sapiens (Human), UniProt Q13627). Description: DYRK1A kinase assay (HotSpot, Reaction Biology). The format is biochemical. The note with it: purified recombinant kinase, 10 μM ATP, room temperature 120 min.
For the next experiment, the target named is DYRK1B (Homo sapiens (Human), UniProt Q9Y463). Nature of the experiment: DYRK1B kinase assay (HotSpot, Reaction Biology). The format is biochemical.
Chain of DYRK1B (Q9Y463 whole entry): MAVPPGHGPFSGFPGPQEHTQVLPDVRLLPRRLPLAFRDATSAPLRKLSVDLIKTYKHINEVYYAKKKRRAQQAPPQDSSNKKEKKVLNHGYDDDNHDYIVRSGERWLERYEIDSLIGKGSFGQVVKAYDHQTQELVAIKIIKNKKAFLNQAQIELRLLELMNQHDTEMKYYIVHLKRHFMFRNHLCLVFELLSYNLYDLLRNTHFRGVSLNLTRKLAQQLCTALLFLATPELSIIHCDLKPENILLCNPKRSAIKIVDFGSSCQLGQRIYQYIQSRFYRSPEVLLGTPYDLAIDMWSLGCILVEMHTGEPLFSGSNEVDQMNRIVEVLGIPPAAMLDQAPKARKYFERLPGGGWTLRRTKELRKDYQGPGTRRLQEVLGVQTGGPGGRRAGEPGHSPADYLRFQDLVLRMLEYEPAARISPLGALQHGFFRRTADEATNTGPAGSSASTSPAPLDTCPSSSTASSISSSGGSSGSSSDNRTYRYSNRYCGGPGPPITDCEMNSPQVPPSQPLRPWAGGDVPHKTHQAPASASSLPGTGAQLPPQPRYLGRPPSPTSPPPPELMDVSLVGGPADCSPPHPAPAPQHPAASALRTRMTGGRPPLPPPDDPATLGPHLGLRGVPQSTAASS
The mark [1] stands for this setting: purified recombinant kinase, 10 μM ATP, room temperature 120 min.

Where two headings read alike, the source gives them in different places.

Consider `CN(C)C(=N)c1nc2ccc3ncnc(Nc4ccc(F)c(Cl)c4)c3c2s1` [Compound 7, 9-(3-Chloro-4-fluorophenylamino)-N,N-dimethylthiazolo[5,4-f]quinazoline-2-carboximidamide], for which, on DYRK1A, the IC50 (in general, the point on the concentration scale where inhibition reaches its midpoint) lay within 1000 to 10000 nM.
For the compound `CN(C)C(=N)c1nc2ccc3ncnc(Nc4ccc(Br)cc4F)c3c2s1` [Compound 14], on DYRK1A, the IC50 amounted to 147 nM.
For the compound `N=C(NCc1ccc(F)cc1)c1nc2ccc3ncnc(Nc4ccc(Br)cc4F)c3c2s1` [Compound 16, 9-(4-Bromo-2-fluorophenylamino)-N-(4-fluorobenzyl)thiazolo[5,4-f]quinazoline-2-carboximidamide], the IC50 at DYRK1A is 1000 to 10000 nM.
Still for that read-out and setting: next, `N=C(NCc1ccncc1)c1nc2ccc3ncnc(Nc4ccc(Br)cc4F)c3c2s1` [Compound 19, 9-(4-Bromo-2-fluorophenylamino)-N-(pyridin-4-ylmethyl)thiazolo[5,4-f]quinazoline-2-carboximidamide]: 1000 to 10000 nM.
Same read-out and setting: next, `CCN(CC)CCNC(=N)c1nc2ccc3ncnc(Nc4ccc(OC)cc4)c3c2s1` [Compound 23, N-(2-(Diethylamino)ethyl)-9-(4-methoxyphenylamino)thiazolo[5,4-f]quinazoline-2-carboximidamide]: […]; `COc1ccc(Nc2ncnc3ccc4nc(C(=N)NCc5ccccc5)sc4c23)cc1` [Compound 25, N-benzyl-9-(4-methoxyphenylamino)thiazolo[5,4-f]quinazoline-2-carboximidamide]: […].
Take `N=C(NCCN1CCOCC1)c1nc2ccc3ncnc(Nc4ccc5c(c4)OCO5)c3c2s1` [Compound 29, 9-(Benzo[d][1,3]dioxol-5-ylamino)-N-(2-morpholinoethyl)thiazolo[5,4-f]quinazoline-2-carboximidamide]: at DYRK1A, the IC50 was in the range of 1000 to 10000 nM.
Still for that read-out and setting: next, `N=C(NCCN1CCCCC1)c1nc2ccc3ncnc(Nc4ccc5c(c4)OCO5)c3c2s1` [Compound 30, 9-(Benzo[d][1,3]dioxol-5-ylamino)-N-(2-(piperidin-1-yl)ethyl)thiazolo[5,4-f]quinazoline-2-carboximidamide]: 1000 to 10000 nM; `N=C(NCCN1CCCC1)c1nc2ccc3ncnc(Nc4ccc5c(c4)OCO5)c3c2s1` [Compound 31, 9-(Benzo[d][1,3]dioxol-5-ylamino)-N-(2-(pyrrolidin-1-yl)ethyl)thiazolo[5,4-f]quinazoline-2-carboximidamide]: […]; `CN(C)CCNC(=N)c1nc2ccc3ncnc(Nc4ccc5c(c4)OCO5)c3c2s1` [Compound 33, 9-(Benzo[d][1,3]dioxol-5-ylamino)-N-(2-(dimethylamino)ethyl)thiazolo[5,4-f]quinazoline-2-carboximidamide]: 431 nM.
Same read-out and setting: next, `CCN(CC)CCNC(=N)c1nc2ccc3ncnc(Nc4ccc5c(c4)OCO5)c3c2s1` [Compound 34, 9-(Benzo[d][1,3]dioxol-5-ylamino)-N-(2-(diethylamino)ethyl)thiazolo[5,4-f]quinazoline-2-carboximidamide]: 1000 to 10000 nM.
For `NC(=O)c1nc2ccc3ncnc(Nc4ccc(Br)cc4F)c3c2s1` [Compound 36, 9-(4-Bromo-2-fluorophenylamino)thiazolo[5,4-f]quinazoline-2-carboxamide], the IC50 on DYRK1A was 194 nM.
`COc1ccc(Nc2ncnc3ccc4nc(C5=NCCO5)sc4c23)cc1` [Compound 42, 2-(4,5-dihydrooxazol-2-yl)-N-(4-methoxyphenyl)thiazolo[5,4-f]quinazolin-9-amine]: the IC50 on DYRK1B (setting [1]) came to 18700 nM.
In the case of `COC(=N)c1nc2ccc3ncnc(Nc4ccc(Br)cc4F)c3c2s1` [Compound 44, Methyl 9-(4-bromo-2-fluorophenylamino)thiazolo[5,4-f]quinazoline-2-carbimidate], the concentration for half-maximal inhibition (IC50) on DYRK1A is 3.6 nM; at DYRK1B, 6.55 nM.
Regarding `COC(=N)c1nc2ccc3ncnc(Nc4ccc(OC)cc4)c3c2s1` [Compound 45, Methyl 9-(4-methoxyphenylamino)thiazolo[5,4-f]quinazoline-2-carbimidate], the IC50 at DYRK1A is 13.1 nM; at DYRK1B (setting [1]), 19.2 nM.
For `COC(=N)c1nc2ccc3ncnc(Nc4cc(Br)c5c(c4)OCO5)c3c2s1` [Compound 47, Methyl 9-(7-bromobenzo[d][1,3]dioxol-5-ylamino)thiazolo[5,4-f]quinazoline-2-carbimidate], in that order: 2.76 nM and 3.66 nM.
Consider `COC(=N)c1nc2ccc3ncnc(Nc4ccc5c(c4)OCO5)c3c2s1` [Compound 48, Methyl 9-(benzo[d][1,3]dioxol-5-ylamino)thiazolo[5,4-f]quinazoline-2-carbimidate], for which the IC50 on DYRK1B (setting [1]) worked out at 4.2 nM.
For `COC(=N)c1nc2ccc3ncnc(Nc4ccc5c(c4)OCCO5)c3c2s1` [Compound 49, Methyl 9-(2,3-dihydrobenzo[b][1,4]dioxin-6-ylamino)thiazolo[5,4-f]quinazoline-2-carbimidate], the IC50 on DYRK1A stood at 8 nM.
In the case of `COC(=N)c1nc2ccc3ncnc(Nc4ccc(OC)c(OC)c4)c3c2s1` [Compound 51, Methyl 9-(3,4-dimethoxyphenylamino)thiazolo[5,4-f]quinazoline-2-carbimidate], the 50% inhibitory concentration (IC50) on DYRK1B (setting [1]) is 161 nM.
As for `COC(=N)c1nc2ccc3ncnc(Nc4ccc(Cl)cc4)c3c2s1` [Compound 56, Methyl 9-(4-chlorophenylamino)thiazolo[5,4-f]quinazoline-2-carbimidate], the IC50 at DYRK1A was 1.13 nM; on DYRK1B (setting [1]), 4.74 nM.
Regarding `COC(=N)c1nc2ccc3ncnc(Nc4ccc(Cl)c(Cl)c4)c3c2s1` [Compound 57, Methyl 9-(3,4-dichlorophenylamino)thiazolo[5,4-f]quinazoline-2-carbimidate], on DYRK1A, the IC50 is 66.8 nM.
Consider `C#Cc1cccc(Nc2ncnc3ccc4nc(C(=N)OC)sc4c23)c1` [Compound 58, Methyl 9-(3-ethynylphenylamino)thiazolo[5,4-f]quinazoline-2-carbimidate], for which the IC50 at DYRK1A is 40.8 nM; on DYRK1B (setting [1]), 46.3 nM.
For `COC(=N)c1nc2ccc3ncnc(Nc4ccc(O)c([N+](=O)[O-])c4)c3c2s1` [Compound 60, Methyl 9-(4-hydroxy-3-nitrophenylamino)thiazolo[5,4-f]quinazoline-2-carbimidate], in that order: 4.91 nM and 5.68 nM.
For `COC(=N)c1nc2ccc3ncnc(Nc4cc(OC)c(OC)c(OC)c4)c3c2s1` [Compound 61, Methyl 9-(3,4,5-trimethoxyphenylamino)thiazolo[5,4-f]quinazoline-2-carbimidate], in that order: 436 nM and 486 nM.
For `COC(=N)c1nc2ccc3ncnc(Nc4ccc(OC)cc4OC)c3c2s1` [Compound 62, Methyl 9-(2,4-dimethoxyphenylamino)thiazolo[5,4-f]quinazoline-2-carbimidate], in that order: 9.53 nM and 11.1 nM.
On to `COC(=N)c1nc2ccc3ncnc(Nc4cc(OC)cc(OC)c4)c3c2s1` [Compound 63, Methyl 9-(3,5-dimethoxyphenylamino)thiazolo[5,4-f]quinazoline-2-carbimidate], for which the IC50 on DYRK1A stood at 299 nM.
With `COC(=N)c1nc2ccc3ncnc(Nc4ccccc4)c3c2s1` [Compound 64, Methyl 9-(phenylamino)thiazolo[5,4-f]quinazoline-2-carbimidate], the IC50 is 1.81 nM at DYRK1A and 3.48 nM on DYRK1B (setting [1]).
For `COC(=N)c1nc2ccc3ncnc(Nc4ccc(C)cc4)c3c2s1` [Compound 65, Methyl 9-(p-tolylamino)thiazolo[5,4-f]quinazoline-2-carbimidate], in that order: 0.98 nM and 2.83 nM.
On the same counts, the results for `COC(=N)c1nc2ccc3ncnc(Nc4ccc(F)cc4)c3c2s1` [Compound 66, Methyl 9-(4-fluorophenylamino)thiazolo[5,4-f]quinazoline-2-carbimidate] are 6.06 nM and 9.64 nM.
On the same counts, the results for `COC(=N)c1nc2ccc3ncnc(Nc4cccc(C#N)c4)c3c2s1` [Compound 67, Methyl 9-(3-cyanophenylamino)thiazolo[5,4-f]quinazoline-2-carbimidate] are 42.7 nM and 72 nM.
Regarding `COC(=N)c1nc2ccc3ncnc(Nc4ccc(F)cc4Br)c3c2s1` [Compound 68, Methyl 9-(2-bromo-4-fluorophenylamino)thiazolo[5,4-f]quinazoline-2-carbimidate], the IC50 on DYRK1A worked out at 0.16 nM; on DYRK1B (setting [1]), 0.24 nM.
For `COC(=N)c1nc2ccc3ncnc(Nc4ccc(C#N)cc4)c3c2s1` [Compound 70, Methyl 9-(4-cyanophenylamino)thiazolo[5,4-f]quinazoline-2-carbimidate], in that order: 3.89 nM and 7.69 nM.
On the same counts, the results for `COC(=N)c1nc2ccc3ncnc(Nc4ccc(Cl)cc4Cl)c3c2s1` [Compound 72, Methyl 9-(2,4-dichlorophenylamino)thiazolo[5,4-f]quinazoline-2-carbimidate] are 0.22 nM and 0.28 nM.
`COC(=N)c1nc2ccc3ncnc(Nc4ccc(OC)c([N+](=O)[O-])c4)c3c2s1` [Compound 73, Methyl 9-(4-methoxy-3-nitrophenylamino)thiazolo[5,4-f]quinazoline-2-carbimidate]: the IC50 at DYRK1A was determined as 124 nM.
As for `COC(=N)c1nc2ccc3ncnc(Nc4ccc(C(C)(C)C)cc4)c3c2s1` [Compound 74, Methyl 9-(4-tert-butylphenylamino)thiazolo[5,4-f]quinazoline-2-carbimidate], the half-inhibitory concentration (IC50) on DYRK1A turned out to be 39 nM; at DYRK1B (setting [1]), 93.8 nM.
On the same counts, the results for `COC(=N)c1nc2ccc3ncnc(Nc4cccc(Cl)c4)c3c2s1` [Compound 75, Methyl 9-(3-chlorophenylamino)thiazolo[5,4-f]quinazoline-2-carbimidate] are 13.6 nM and 18.8 nM.
For the compound `COC(=N)c1nc2ccc3ncnc(Nc4ccc(N(C)C)cc4)c3c2s1` [Compound 76, Methyl 9-(4-(dimethylamino)phenylamino)thiazolo[5,4-f]quinazoline-2-carbimidate], the figures for the 50% inhibitory concentration (IC50) on DYRK1A and on DYRK1B (setting [1]) were 35.6 nM and 64.3 nM, respectively.
For `COC(=N)c1nc2ccc3ncnc(Nc4ccc(N5CCCC5)cc4)c3c2s1` [Compound 77, Methyl 9-(4-(pyrrolidin-1-yl)phenylamino)thiazolo[5,4-f]quinazoline-2-carbimidate], in that order: 54.8 nM and 186 nM.
